{"source": "patent US9045431B2", "about": "“Processes for the preparation of 5-HT2C receptor agonists” (Arena Pharmaceuticals, Inc., priority 2010, dated 2015)", "key": {"[1]": {"assay": "Dynamic moisture sorption (DMS)", "format": "physicochemical", "conditions": "for DMS result (hygroscopicity / form conversion): isotherm 25° C., 10% RH to 90% or 95% RH", "method": "Dynamic moisture-sorption (DMS) studies were conducted using a dynamic moisture-sorption analyzer, VTI Corporation, SGA-100. Samples were prepared for DMS analysis by placing 5 mg to 20 mg of a compound or a salt thereof in a tared sample holder. The sample was placed on the hang-down wire of the VTI balance. A drying step was run, typically at 40° C. and 0.5-1% RH for 1-2 h. The isotherm temperature is 25° C. Defined % RH holds typically ranged from 10% RH to 90% RH or 95% RH, with intervals of 10 to 20% RH. A % weight change smaller than 0.010% over a specified number of minutes (typically 10-20), or up to 2 h, whichever occurs first, is required before continuing to the next % RH hold. The water content of the sample equilibrated as described above was determined at each % RH hold."}, "[2]": {"assay": "Competitive slurry experiments / solution-mediated phase transformation (thermodynamic stability of crystal forms)", "format": "physicochemical", "conditions": "for relative thermodynamic stability among the anhydrous polymorphs: ambient / room temperature", "source_text": "The thermodynamic relationships between the Compound 1 hydrochloride salt hemihydrate Form III and the anhydrous polymorphs of Compound 1 hydrochloride salt were established by competitive slurry experiments in acetonitrile and acetone at various aw, values.\nAt the critical aw, a given anhydrous form and Compound 1 hydrochloride salt hemihydrate Form III will have equal solubility and can coexist in equilibrium. Below the critical aw, the anhydrous form is more thermodynamically stable, thus less soluble. Above the critical water activity, Compound 1 hydrochloride salt hemihydrate Form III is more thermodynamically stable, thus less soluble. Solids from the competitive slurry experiments were identified by PXRD. Slurries with known aw values were used instead of humidity chambers because solution-mediated phase transformations (SMPTs) are much faster than vapor-mediated phase transformations, especially near the critical aw. […] FIG. 16 illustrates the critical aw of form Compound 1 hydrochloride salt hemihydrate Form III, with respect to Compound 1 hydrochloride salt Form I, and Compound 1 hydrochloride salt, IV.\nFor enantiotropic polymorphs, the temperature that marks the point at which two polymorphs have the same thermodynamic stability is called the transition temperature (Tt)."}, "[3]": {"conditions": "cited from earlier work; for reported side effect: in some patients"}, "[4]": {"conditions": "cited from earlier work"}, "[5]": {"conditions": "pivotal phase 3 program, treated for up to two years, fraction of patients"}, "[6]": {"conditions": "pivotal phase 3 program, up to two years"}, "[7]": {"conditions": "second phase 3 trial, top quartile"}}, "note": "“Also recorded” adds a separate entry of the source."}
{"smiles": "C[C@H]1CNCCc2ccc(Cl)cc21.C[C@H]1CNCCc2ccc(Cl)cc21.Cl.Cl.O", "note": "[(R)-8-Chloro-1-methyl-2,3,4,5-tetrahydro-1H-3-benzazepine Hydrochloride Hemihydrate Form III]", "values": [{"measurement": "change in crystalline form by PXRD after the DVS cycle", "setting": "[1]; after DVS cycle", "result": "no change"}, {"measurement": "water adsorbed in DMS", "setting": "[1]; at 90% RH", "result": "less than 0.5 wt %"}, {"measurement": "DMS result (hygroscopicity / form conversion)", "setting": "[1]", "result": "substantially non-hygroscopic"}, {"measurement": "DMS result (hygroscopicity / form conversion)", "setting": "[1]; listed as Compound 1 Hydrochloride Salt Hemihydrate, Form III", "result": "FIG. 11: non-hygroscopic"}]}
{"smiles": "C[C@H]1CNCCc2ccc(Cl)cc21.Cl", "note": "[Compound 1 hydrochloride salt Form I, (R)-8-Chloro-1-methyl-2,3,4,5-tetrahydro-1H-3-benzazepine Hydrochloride Salt Form I]", "values": [{"measurement": "DMS result (hygroscopicity / form conversion)", "setting": "[1]", "result": "complete conversion to Compound 1 hydrochloride hemihydrate Form III"}, {"measurement": "DMS result (hygroscopicity / form conversion)", "setting": "[1]; listed as Compound 1 Hydrochloride Salt Form I", "result": "FIG. 3: Converts to Form III hemihydrate"}]}
{"smiles": "C[C@H]1CNCCc2ccc(Cl)cc21.Cl", "note": "[Compound 1 hydrochloride salt Form II, (R)-8-Chloro-1-methyl-2,3,4,5-tetrahydro-1H-3-benzazepine Hydrochloride Salt Form II]", "values": [{"measurement": "DMS result (hygroscopicity / form conversion)", "setting": "[1]", "result": "converting to the hemihydrate Form III"}, {"measurement": "DMS result (hygroscopicity / form conversion)", "setting": "[1]; listed as Compound 1 Hydrochloride Salt Form II", "result": "FIG. 7: Converts to Form III hemihydrate"}, {"measurement": "relative thermodynamic stability among the anhydrous polymorphs", "setting": "[2]", "result": "least stable anhydrous polymorph"}]}
{"smiles": "C[C@H]1CNCCc2ccc(Cl)cc21.Cl", "note": "[Compound 1 hydrochloride salt Form IV, (R)-8-Chloro-1-methyl-2,3,4,5-tetrahydro-1H-3-benzazepine Hydrochloride Salt Form IV]", "values": [{"measurement": "DMS result (hygroscopicity / form conversion)", "setting": "[1]", "result": "converting to Compound 1 hydrochloride salt Form III"}, {"measurement": "DMS result (hygroscopicity / form conversion)", "setting": "[1]; listed as Compound 1 Hydrochloride Salt Form IV", "result": "FIG. 14: Converts to hemihydrate"}, {"measurement": "relative thermodynamic stability among the anhydrous polymorphs", "setting": "[2]", "result": "most stable of the three anhydrous polymorphs; also recorded: more stable than Compound 1 hydrochloride salt Form I"}, {"measurement": "relative humidity at which the form is not thermodynamically favored over hemihydrate Form III", "setting": "[2]; ambient temperature", "result": "≥ 20", "unit": "% RH"}]}
{"smiles": "CC(C)CC(N(C)C)C1(c2ccc(Cl)cc2)CCC1", "note": "(stereo not drawn) [Sibutramine]", "values": [{"measurement": "reported side effect", "setting": "[3]", "result": "raised blood pressure"}]}
{"smiles": "CCCCCCCCCCC[C@@H](C[C@@H]1OC(=O)[C@H]1CCCCCC)OC(=O)[C@H](CC(C)C)NC=O", "note": "[Xenical™, Orlistat]", "values": [{"measurement": "reported side effect", "setting": "[3]", "result": "gastrointestinal distress"}]}
{"smiles": "CCN[C@@H](C)Cc1cccc(C(F)(F)F)c1", "note": "[d-fenfluramine]", "values": [{"measurement": "cardiac valve defects, fraction of patients", "setting": "[3]; reports that led to withdrawal by the FDA in 1998", "result": "up to one third"}]}
{"smiles": "C[C@H]1CNCCc2ccc(Cl)cc21.Cl", "note": "[lorcaserin, (R)-8-Chloro-1-methyl-2,3,4,5-tetrahydro-1H-3-benzazepine hydrochloride]", "values": [{"measurement": "adverse event that exceeded the placebo rate by 5%", "setting": "[4]; clinical program", "result": "generally mild or moderate, transient headache"}, {"measurement": "depression or suicidal ideation", "setting": "[4]; clinical program", "result": "no signal"}, {"measurement": "heart rate and blood pressure", "setting": "[4]; clinical program", "result": "went down"}, {"measurement": "quality of life", "setting": "[4]; clinical program", "result": "improved"}, {"measurement": "risk of cardiac valvulopathy", "setting": "[4]; clinical program", "result": "did not increase"}, {"measurement": "secondary endpoints (body composition, lipids, cardiovascular risk factors, glycemic parameters)", "setting": "[4]; compared to placebo", "result": "improved compared to placebo"}, {"measurement": "excess body weight lost", "setting": "[4]; first phase 3 trial, based on a normal BMI of 25, fraction of excess body weight", "result": "about one-third"}, {"measurement": "average weight lost, of their weight", "setting": "[4]; pivotal phase 3 program, on average", "result": "about 8%"}, {"measurement": "patients who achieved at least 5% weight loss", "setting": "[4]; [5]", "result": "About two-thirds"}, {"measurement": "patients who achieved at least 10% weight loss", "setting": "[4]; [5]", "result": "over one-third"}, {"measurement": "tolerability", "setting": "[4]; [6]", "result": "excellent tolerability"}, {"measurement": "weight loss (in words)", "setting": "[4]; [6]", "result": "significant weight loss"}, {"measurement": "average weight loss, top quartile of patients", "setting": "[4]; [7]", "result": 35, "unit": "pounds"}, {"measurement": "average weight loss, top quartile of patients, of body weight", "setting": "[4]; [7]", "result": 16, "unit": "%"}]}
